According to PMC3903666 (Analytical biochemistry, 2012):
Where a name gives a salt, the structure may show the parent alone.

Columns and labels:
Af SidA [1] = target: T1, Af SidA (Aspergillus fumigatus, UniProt E9QYP0); test: Fluorescence polarization displacement assay in high throughput screening; format: binding; settings: 10 μM compound, 2 μM Af SidA, 30 nM chromophore 4, 2% DMSO
Af SidA [2] = target: T1, Af SidA; test: Ornithine hydroxylation activity assay and inhibition of Af SidA; format: biochemical
Af SidA [3] = target: T1, Af SidA; test: Fluorescence polarization displacement assay, Af SidA; format: binding
[4] = target: KMO (kynurenine 3-monooxygenase) (Pseudomonas fluorescens, UniProt Q84HF5); test: Fluorescence polarization binding assay, KMO
Chain of KMO (kynurenine 3-monooxygenase) (Q84HF5 whole entry): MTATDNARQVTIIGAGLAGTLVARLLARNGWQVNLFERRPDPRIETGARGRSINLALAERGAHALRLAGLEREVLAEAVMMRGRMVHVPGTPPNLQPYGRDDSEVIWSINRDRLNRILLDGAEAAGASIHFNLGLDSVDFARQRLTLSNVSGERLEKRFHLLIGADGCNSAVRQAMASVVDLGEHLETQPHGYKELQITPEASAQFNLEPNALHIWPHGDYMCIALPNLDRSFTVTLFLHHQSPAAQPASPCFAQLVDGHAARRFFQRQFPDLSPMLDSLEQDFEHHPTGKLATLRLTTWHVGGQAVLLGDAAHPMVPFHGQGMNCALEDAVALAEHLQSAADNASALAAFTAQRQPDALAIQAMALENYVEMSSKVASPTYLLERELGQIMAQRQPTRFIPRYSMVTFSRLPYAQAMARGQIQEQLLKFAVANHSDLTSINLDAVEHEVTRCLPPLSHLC

Af SidA [5] = target: T1, Af SidA; test: Fluorescence polarization binding assay, Af SidA

T1 sequence (E9QYP0 whole entry): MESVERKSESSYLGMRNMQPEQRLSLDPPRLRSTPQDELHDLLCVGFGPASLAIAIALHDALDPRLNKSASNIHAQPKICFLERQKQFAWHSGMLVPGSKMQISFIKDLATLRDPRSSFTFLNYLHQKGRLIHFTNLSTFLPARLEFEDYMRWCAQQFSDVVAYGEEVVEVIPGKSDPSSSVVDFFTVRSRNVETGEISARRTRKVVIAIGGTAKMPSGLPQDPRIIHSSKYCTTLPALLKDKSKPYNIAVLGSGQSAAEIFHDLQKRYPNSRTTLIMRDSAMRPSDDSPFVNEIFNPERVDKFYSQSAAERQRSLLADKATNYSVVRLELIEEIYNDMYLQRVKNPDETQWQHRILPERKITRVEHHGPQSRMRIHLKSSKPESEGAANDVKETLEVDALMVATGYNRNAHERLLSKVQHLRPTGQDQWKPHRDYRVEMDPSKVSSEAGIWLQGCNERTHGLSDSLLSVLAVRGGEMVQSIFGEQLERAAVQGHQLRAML

Question: How did the “decrease of the anisotropy value in the screen” value (Af SidA [1]) turn out when `C[n+]1cc2c3c(ccc2c2ccc4cc5c(cc4c21)OCO5)OCO3` [Sanguinarine, sanguinarine sulfate] was run?
Answer: 20%

Question: And the IC50 (Af SidA [2])?
Answer: 500 ± 90 µM

Question: What about the “inhibition of Af SidA activity observed” value (Af SidA [2]; in the presence of NADPH and ornithine, inhibitor up to 1000 μM) of the same compound?
Answer: 100%

Question: Which “binding to Af SidA” value (Af SidA [3]; negative hit, Figure 9S) does the source give for `COc1ccc2cc([C@H](C)C(=O)O)ccc2c1` [naproxen] here?
Answer: did not bind

Question: For `COc1ccc2cc3[n+](cc2c1OC)CCc1cc2c(cc1-3)OCO2` [berberine], which “decrease in anisotropy (specificity of binding to Af SidA)” value (Af SidA [3]; addition of up to 1 mM compound, Figure 9S) is on record?
Answer: did not produce a decrease in anisotropy similar to sanguinarine

Question: `NCCCC[C@H](N)C(=O)O` [Lysine, lysine] was tested. Which Kd (Af SidA [3]) did it give?
Answer: 11000 ± 1000 µM

Question: For `NCCC[C@H](N)C(=O)O` [Ornithine, ornithine], which Kd (Af SidA [3]) is on record?
Answer: 4000 ± 1000 µM

Question: Which results are given for `CN(C)c1ccc2c(c1)Oc1cc(N(C)C)ccc1C21OC(=O)c2ccc(C(=O)NCCCCCC(=O)NCCCCCCOP(=O)(O)OP(=O)(O)OCC3OC(n4cnc5c(N)ncnc54)C(O)C3O)cc21` (centres unmarked) [Chromophore 3]?
Answer: Kd [4]: 10 ± 2 µM; Kd (Af SidA [5]): 9 ± 5 µM

Question: Which Kd [4] does the source give for `CN(C)c1ccc2c(c1)Oc1cc(N(C)C)ccc1C21OC(=O)c2cc(C(=O)NCCCCCC(=O)NCCCCCCOP(=O)(O)OP(=O)(O)OCC3OC(n4cnc5c(N)ncnc54)C(O)C3O)ccc21` (centres unmarked) [Chromophore 4] here?
Answer: 0.6 ± 0.05 µM

Question: What about the Kd (Af SidA [5]) of the same compound?
Answer: 2.1 ± 0.2 µM
